Results from paper PMC4742142, “Identification of novel, in vivo active Chk1 inhibitors utilizing structure guided drug design” (Oncotarget, 2015).
Entries after “also recorded” stand apart in the source; their conditions may differ. Where two headings read alike, the source gives them in different places.

Experiments:
[1] = test system: panel of 386 kinases; test: Wide panel binding assay, whole panel; details: at pharmacologically relevant doses
Protocol: Selectivity against the cell cycle kinase CDK1 is considered critical for the pharmacological activity of Chk1 inhibitors as inhibiting it would prevent the G2 checkpoint abrogation and entry into mitosis; critical for the potentiation of cytotoxic DNA damage. Against a panel of 386 kinases in a wide panel binding assay, V158411 inhibited the activity of one kinase (Chk1) in the range 99-100%, three kinases 90-99% and 19 kinases 65-90% at 50 nM (Supplementary Table 1).

[2] = test system: PC3; test: Single agent cytotoxicity assay (SRB, 72 hours); assay type: cell-based; details: Homo sapiens, PC-3, PC3, prostate
Protocol: (§1) All cells were obtained from the American Type Culture Collection and maintained as low passage stocks. Cells were routinely cultured in DMEM or RPMI1640 containing 10% FCS and 1% penicillin / streptomycin (Invitrogen). The cytotoxicity of V158411 was determined following exposure of cells in 96 well plates using a 10-point titration for 72 hours. Cell proliferation was determined using sulphorhodamine B staining following protein precipitation with 10% TCA.

[3] = test system: SW620; test: Single agent cytotoxicity assay (SRB, 72 hours); assay type: cell-based; details: Homo sapiens, SW-620, SW620, colon
Protocol: as §1

[4] = test system: Colo205; test: Single agent cytotoxicity assay (SRB, 72 hours); assay type: cell-based; details: Homo sapiens, COLO 205, Colo205, colon
Protocol: as §1

[5] = test system: NCI-H460; test: Single agent cytotoxicity assay (SRB, 72 hours); assay type: cell-based; details: Homo sapiens, NCI-H460, lung
Protocol: as §1

[6] = test system: NCI-H520; test: Single agent cytotoxicity assay (SRB, 72 hours); assay type: cell-based; details: Homo sapiens, NCI-H520, lung
Protocol: as §1

[7] = test system: A549; test: Single agent cytotoxicity assay (SRB, 72 hours); assay type: cell-based; details: Homo sapiens, A549, lung
Protocol: as §1

[8] = test system: HT29; test: Single agent cytotoxicity assay (SRB, 72 hours); assay type: cell-based; details: Homo sapiens, HT-29, HT29, colon
Protocol: as §1

[9] = test system: HCT116; test: Single agent cytotoxicity assay (SRB, 72 hours); assay type: cell-based; details: Homo sapiens, HCT-116, HCT116, colon
Protocol: as §1

[10] = Tolerability (MTD) in female nu/nu mice; assay type: in vivo
Source text: Animals were weighed daily for the first five days then twice weekly thereafter for the duration of the study. The mice were observed frequently for overt signs of any adverse, treatment-related side effects, and clinical signs of toxicity recorded. Toxicity greater than a group mean body-weight loss of more than 20% or 1 in 10 treatment-related deaths was considered to be the maximum tolerated dose.

[11] = test system: HT29 cells; test: Clonogenicity (colony formation) assay; assay type: cell-based, human; details: HT29, 300 nM V158411 with gemcitabine, camptothecin or SN38
Protocol: HT29 cells were plated at a density of 300 cells per well in 6-well plates and allowed to attach for 4 hours. Cells were treated with gemcitabine, camptothecin or SN38 in the absence or presence of V158411 for 24 hours followed by drug free media for a further 14 days. Resulting colonies were stained and fixed with 0.1% crystal violet in 10% formaldehyde.

[12] = Pharmacokinetics of V158411 and irinotecan, single and combination administration; assay type: in vivo; details: mouse; for half-life / CL/F: female, Balb/C, plasma; for CL/F: read-out: CL or CL/F
Protocol: (§2) Dosing of animals and collection of samples was conducted by Quotient Bioresearch (Rushden) Ltd, UK. V158411 was administered by intravenous (IV) bolus injection to female Balb/C mice, male Sprague-Dawley rats or male beagle dogs. Plasma samples were prepared by protein precipitation with acetonitrile containing internal standard (IS; dextromethorphan, 0.5 μg/mL); the analysis plate was centrifuged at 3,000 rpm for 10 minutes at 4°C. […] The ratios of analyte against IS peak areas were calculated, and concentrations derived from calibration lines generated by Quanlynx (Waters Ltd.).
(§3) Pharmacokinetic parameters were calculated using the software package WinNonLin (Pharsight Corp.). Data was analyzed using noncompartmental analysis and fitted using plasma concentration versus time curves.

[13] = Plasma and tumor pharmacokinetics in HT29 tumor bearing mice; assay type: in vivo; details: mouse, HT29 tumor bearing mice, 30 mg/kg IV
Protocol: as §2, §3

[14] = biological target: Chk2 (Homo sapiens, UniProt O96017); test: In vitro kinase assay, Chk2; assay type: biochemical; details: full length Chk2
Protocol: Kinase assays were performed as previously described.

[15] = other: V158411 intravenous, irinotecan intraperitoneal
[16] = other: irinotecan intraperitoneal, V158411 intravenous

Chk2, sequence (O96017 whole entry): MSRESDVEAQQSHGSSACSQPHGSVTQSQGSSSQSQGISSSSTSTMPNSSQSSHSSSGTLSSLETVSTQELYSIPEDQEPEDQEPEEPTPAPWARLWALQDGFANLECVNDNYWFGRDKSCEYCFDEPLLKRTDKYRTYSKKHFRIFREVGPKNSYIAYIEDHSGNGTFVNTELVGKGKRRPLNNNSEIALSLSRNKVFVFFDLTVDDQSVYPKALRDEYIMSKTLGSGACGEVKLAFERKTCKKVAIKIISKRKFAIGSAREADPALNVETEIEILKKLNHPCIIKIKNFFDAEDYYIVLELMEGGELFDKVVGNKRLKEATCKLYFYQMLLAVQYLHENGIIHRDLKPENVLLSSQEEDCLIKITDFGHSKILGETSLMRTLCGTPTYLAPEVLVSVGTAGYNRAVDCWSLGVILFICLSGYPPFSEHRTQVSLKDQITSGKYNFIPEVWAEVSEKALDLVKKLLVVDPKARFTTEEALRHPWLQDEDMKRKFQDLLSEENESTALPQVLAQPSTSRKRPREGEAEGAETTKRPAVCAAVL

Question: With `CN(C)CC(C)(C)COc1ccc2[nH]c(-c3cc(NC(=O)c4cnn(Cc5ccccc5)c4)c[nH]c3=O)cc2c1` [V158411] as the compound, how does the “selectivity for Chk1 over the majority of the kinases in the panel” value [1] read?
Answer: The value was greater than 100 fold.

Question: What about the GI50 [2] of the same compound?
Answer: The GI50 was 9500 ± 1000 nM.

Question: What about the GI50 [3] of the same compound?
Answer: Its GI50 is 500 ± 33 nM.

Question: And the GI50 [4]?
Answer: The GI50 was 1600 ± 420 nM.

Question: What about the GI50 [5] of the same compound?
Answer: Its GI50 is 2700 ± 930 nM.

Question: What about the GI50 [6] of the same compound?
Answer: Its GI50 is 550 ± 140 nM.

Question: What about the GI50 [7] of the same compound?
Answer: Its GI50 is 1400 ± 350 nM.

Question: What about the GI50 [8] of the same compound?
Answer: Its GI50 is 650 ± 250 nM.

Question: What about the GI50 [9] of the same compound?
Answer: The GI50 was 4000 ± 780 nM.

Question: What about the “toxicity / maximum tolerated dose” value ([10]; IV bolus once or twice weekly, doses up to 100 mg/kg) of the same compound?
Answer: The value was “minimal toxicity at doses up to 100 mg/kg; also recorded: the maximum tolerated dose of V158411 has yet to be found”.

Question: What about the “effect on irinotecan toxicity” value ([10]; MTD irinotecan (100 mg/kg IP) plus V158411 up to 100 mg/kg IV 2 hours later, q7d 3 weeks) of the same compound?
Answer: Its value is “did not result in increased irinotecan toxicity; also recorded: did not affect the toxicity of irinotecan”.

Question: What about the “acute, dose-related effects” value ([10]; single agent IV, self-limiting, minimized by slow infusion) of the same compound?
Answer: Its value is “flushing, tachycardia, exophthalmos”.

Question: And the “effect on body weight” value ([10]; single agent, 60 to 100 mg/kg IV q7d for 21 days, female nude mice)?
Answer: The value was “no effect on body weight loss”.

Question: And the “effect on fraction of cells killed in colony formation” value [11]?
Answer: Its value is “significantly increased the fraction of cells killed by all three agents”.

Question: And the half-life [12, 15]?
Answer: The half-life was 3.4 h.

Question: What about the CL/F [12, 15] of the same compound?
Answer: The CL/F was 17.7 mL/min/kg.

Question: And the half-life [12, 16]?
Answer: Its half-life is 3.3 h.

Question: And the CL/F [12, 16]?
Answer: The CL/F was 8.2 mL/min/kg.

Question: And the AUClast fold change ([12]; combination (C) versus single administration (I))?
Answer: The AUClast fold change was 2.2 fold.

Question: And the clearance ([13]; plasma)?
Answer: The clearance was 24 mL/min/kg.

Question: What about the half-life ([13]; plasma, read-out: half-life (plasma) (converted)) of the same compound?
Answer: Its half-life is 4.1 h.

Question: What about the Vd ([13]; plasma, read-out: volume of distribution) of the same compound?
Answer: Its Vd is 2.5 L/kg.

Question: What about the half-life ([13]; read-out: elimination half-life in the tumor (converted)) of the same compound?
Answer: Its half-life is 22 h.

Question: What about the Kp ([13]; tumor versus plasma, read-out: tissue/plasma AUC0-24h ratio) of the same compound?
Answer: The Kp was 4.7.

Question: And the IC50 [14]?
Answer: Its IC50 is 4.5 nM.
